Assays:
[1] = DPPH radical scavenging test (colorimetric); details: concentration scavenging 50% of DPPH radicals; 10 min, room temperature, 517 nm; mean ± SD
Experimental: Antioxidative properties of the obtained MPA derivatives were assessed chemically using a colorimetric DPPH test. The IC50 value represents the scavenging activity, defined as the concentration of a compound required to scavenge 50% of DPPH radicals.
Briefly, 400 µL solution of each synthesized compound with different concentrations (20–1000 µg/mL) was added to 1.6 mL DPPH solution (100 µmol/L). After shaking, the mixture was incubated at room temperature in the dark for 10 min, and then the absorbance was measured at 517 nm. The %Scavenging activity was calculated by using the formula: […]
The scavenging activity was expressed as IC50 value, defined as the concentration (mM) of compound required for scavenging DPPH radicals by 50%. IC50 values were determined by linear regression analysis using at least three different concentrations in duplicate.
Three different concentrations were prepared for each sample, while each one was analyzed in duplicate. […] The statistical analysis was performed using Tukey’s HSD test (p < 0.05). The statistical software Statistica 10 software (StatSoft Inc., Tulsa, OK, USA) was implemented for this analysis.

T-Jurkat cells [2] = assay: VPD450 proliferation test (flow cytometry) on T-Jurkat cells; format: cell-based, human; details: for EC50: Homo sapiens, T-Jurkat, 48 h, mean ± SD; for IS internal selectivity (EC50 PBMCs / EC50 T-Jurkat): ratio between VPD450 EC50 values for PBMCs and T-Jurkat cell line
Experimental: (§1) These values indicate the concentration of any compound at which proliferation of PBMCs (healthy cells), and T-Jurkat cells (T-cell leukemia), is inhibited by 50% compared to the control. Cells were treated with the compounds for 72 h (PBMCs) or 48 h (T-Jurkat), followed by a […] VPD450 test. The results are presented in ESI Fig. S3 as proliferation curves concerning concentration.
(§2) ESI Figure 3. Concentration-dependent change in proliferation under the treatment of ester derivatives of MPA. (A) VPD450-labelled PBMCs were cultured in the presence of different concentrations (100; 50; 25; 10; 1; 0.1, and 0.01 μM) of MPA, MMF, and ester derivatives, and stimulated with magnetic beads coated with anti-CD3 and anti-CD28 antibodies for 72 hours. (B) VPD450-labelled T-Jurkat cells were cultured in the presence of different concentrations (100; 10; 1; 0.1 and 0.01 μM) of MPA and ester derivatives for 48 hours. The plots were separated based on the type of ester derivative (P or MP). Cell proliferation was analyzed using flow cytometry. The results are expressed […]
(§3) (1 picture or pasted object on this page, not shown here) […]
(§4) inhibited cell viability by more than 50%. Each experiment was conducted in triplicate, and the final […]
(§5) VPD450 dye-based in vitro cell proliferation test
(§6) PBMCs and T-Jurkat cells were washed twice with warm PBS (37°C), re-suspended in fresh PBS at a final concentration of 10-30∙10^6 cells/ml, and labelled with 1 µl of VPD450 (BD Biosciences) at 37°C for 15 minutes, with vortexing every 5 minutes to ensure uniform staining. Subsequently, cells were washed with PBS, then with the complete medium (X-VIVO20 for PBMCs and RPMI-1640 for T-Jurkat cells), next re-suspended in fresh complete medium and seeded into 96-well plates at a concentration of 1∙10^6 cells per well. PBMCs were additionally stimulated with magnetic beads coated with anti-CD3 and anti-CD28 antibodies (Invitrogen) at a 2:1 cell-to-bead ratio. To the experimental wells, 100 µl of the MPA derivatives were added to achieve final concentrations of 50, 25, 10, 5, 1, 0.1, and 0.01 µM. In parallel, control wells containing stained but unstimulated cells and stained, stimulated cells were prepared at the same concentration. Cell proliferation was analyzed using an LSRFortessa flow cytometer (BD Biosciences) and Kaluza C Flow Cytometry Analysis Software (Beckman Coulter). […]
(§7) Statistical analysis was conducted using GraphPad Prism 9 (GraphPad Software Inc).
(§8) Differences between MMF, MPA and its new derivatives were assessed using a two-tailed unpaired Student’s t-test, with statistical significance defined as p < 0.05. EC50 and IC50 values were determined by fitting data to a four-parameter non-linear regression model in GraphPad Prism 9. Statistical significance was evaluated using the t-test.

PBMCs [3] = assay: VPD450 proliferation test (flow cytometry) on PBMCs; format: cell-based, human; details: for EC50: Homo sapiens, PBMC, PBMCs stimulated with anti-CD3/anti-CD28 beads, 72 h, mean ± SD; for SI selectivity index PBMCs (IC50/EC50): ratio between IC50 (XTT) and EC50 (VPD450) on PBMCs
Experimental: as §1, §2, §3, §4, §5, §6, §7, §8

PBMCs [4] = assay: XTT cytotoxicity test on PBMCs; format: cell-based; details: Homo sapiens, PBMC, 72 h (ESI: 96 h), viability, mean ± SD, read-out: Relative IC50 PBMCs (XTT)
Experimental: (§9) Table 3 presents the IC50 values obtained from the XTT test on PBMCs and the T-Jurkat cell line, using MPA and MMF as standards. These values indicate the concentration of each compound required to reduce the viability of PBMCs (healthy cells) and T-Jurkat cells (T-cell leukemia) by 50% compared to the control. Cells were treated with compounds for 72 h (PBMCs) or 48 h (T-Jurkat), followed by a colorimetric XTT test. The results are illustrated in ESI Fig. S2 as a viability curve in relation to concentration.
Biological evaluation — PBMC and T-Jurkat cells […]
(§10) Human peripheral blood mononuclear cells (PBMCs) were isolated from buffy coats provided by anonymous, healthy volunteers with an average age of 35±4 years during routine transfusion procedure. These samples were received by the Authors from the Regional Centre for Blood Donation and Treatment in Gdańsk (Poland). […]
(§11) solely for PBMCs isolation. PBMCs were suspended in a complete X-VIVO medium, consisting of X-VIVO20, 10% heat-inactivated human AB serum, penicillin (100 U/ml), and streptomycin ([…]).
(§12) MPA derivatives preparation
(§13) To achieve the desired concentrations of the tested compounds, the substances were first dissolved in DMSO to reach a final concentration of 0.01 M. The solutions were then diluted in the appropriate additive-free medium (RPMI-1640 for T-Jurkat cells and X-VIVO20 for PBMCs) to obtain […]
(§14) Peripheral blood mononuclear cells were isolated by gradient centrifugation, as described previously. Buffy coats were diluted with phosphate-buffered saline (PBS, pH = 7.4, ThermoFisher Scientific) in a 1:1 ratio, layered at Ficoll-Paque™ PLUS (VWR International), and centrifuged at 800 × g for 20 minutes. The PBMC layer was collected and washed twice with PBS (1st wash: 600 × g for 10 minutes; 2nd wash: 600 × g for 5 minutes). Cell amount and viability were assessed using the Bio-Rad TC20™ automated cell counter combined with trypan blue staining.
(§15) XTT dye-based in vitro cytotoxicity test
(§16) The cytotoxic effects of mycophenolic acid (MPA) derivatives were assessed using an in vitro XTT-based assay (Roche). PBMCs in complete X-VIVO20 medium and T-Jurkat cells in complete RPMI-1640 medium were seeded into 96-well plates at a concentration of 5∙10^5 cells/50 µl per well. 50 µl of tested compounds were added to the experimental wells to achieve final concentrations of 50, 25, 10, 5, 1, 0.1, and 0.01 µM. The background control consisted of the medium without cells, while untreated cells served as the positive control. After incubating for 48 hours for T-Jurkat cells and 96 hours for PBMCs in a humidified atmosphere with 5% CO2 at 37°C, 50 µl of freshly prepared XTT reagent was added to all wells according to the manufacturer's instructions. The plates were then incubated for an additional 24 hours under the same conditions. The conversion of the water-soluble yellow XTT tetrazolium salt to orange formazan was quantified by measuring the optical density (OD) at 450 nm using an Agilent BioTek Epoch Microplate Spectrophotometer (Agilent Technologies), with a reference wavelength of 690 nm. The results were expressed as IC50 values for compounds that […]
(§17) inhibited cell viability by more than 50%. […]
PBMCs were suspended in a 15 mL centrifuge tube at a concentration of 10-30 × 10⁶ cells in 1 mL of PBS, then, 2 μL of 1 mM VPD 450 dye solution was added, incubated for 15 min at 37°C, washed with a 9-fold volume of warm PBS and centrifuged at 400 x g for 5 min. Then, the cells were suspended in 10 mL of X-VIVO medium with 10% FBS and centrifuged again at 400 x g for 5 min. After suspending the cells in the complete medium, the staining level was checked using flow cytometry. The cells thus obtained were stimulated with anti-CD3/anti-CD28 antibodies as described previously (see VPD450 dye-based in vitro cell proliferation test). To perform the GMP test, a proper amount of GMP was added to each well to reach its final concentration of 50 μM, and then incubated for 72 hours. Proliferative […]

T-Jurkat cells [5] = assay: XTT cytotoxicity test on T-Jurkat cell line; format: cell-based, human
Experimental: as §9
Biological evaluation — PBMC and T-Jurkat cells
The T-Jurkat cell line (Clone E6-1, ATCC TIB-152), derived from a human acute T-cell leukemia, was obtained from the cell bank of the Department of Medical Immunology at the Medical University of Gdańsk. Before experimentation, the cells were thawed and cultured for about 7 days to reach the logarithmic phase of growth. The T-Jurkat cell line was suspended in a complete RPMI medium, which included RPMI-1640, 10% FBS, penicillin (100 U/ml), and streptomycin ([…]).
as §10, §11, §12, §13, §14, §15, §16, §17
PBMCs were suspended in a 15 mL centrifuge tube at a concentration of 10-30 × 10⁶ cells in 1 mL of PBS, then, 2 μL of 1 mM VPD 450 dye solution was added, incubated for 15 min at 37°C, washed with a 9-fold volume of warm PBS and centrifuged at 400 x g for 5 min. Then, the cells were suspended […]

| IC50 [1] | EC50 (T-Jurkat cells [2]) | IS internal selectivity (EC50 PBMCs / EC50 T-Jurkat) (T-Jurkat cells [2]) | SMILES | EC50 (PBMCs [3]) | SI selectivity index PBMCs (IC50/EC50) (PBMCs [3]) | IC50 (PBMCs [4]) | IC50 (T-Jurkat cells [5]; Homo sapiens, T-Jurkat, 48 h, viability, mean ± SD, read-out: Relative IC50 T-Jurkat (XTT)) | IS internal selectivity (IC50 PBMCs / IC50 T-Jurkat) (T-Jurkat cells [5]; ratio between XTT IC50 values for PBMCs and T-Jurkat cell line) | SI selectivity index T-Jurkat (IC50/EC50) (T-Jurkat cells [2]; ratio between IC50 (XTT) and EC50 (VPD450) on T-Jurkat cell line) |
| --- | --- | --- | --- | --- | --- | --- | --- | --- | --- |
| 14900 ± 340 µM | 0.662 ± 0.031 µM | 1.755 | COc1cc(CCC(C)=O)ccc1OC(=O)CC/C(C)=C/Cc1c(O)c2c(c(C)c1OC)COC2=O [MP6] | 1.162 ± 0.003 µM | 12.664 | 14.71 ± 0.045 µM | – | – | – |
| 20100 ± 258 µM | 1.34 ± 0.035 µM | – | C=C[C@@](C)(/C=C/c1ccc(OC(=O)CC/C(C)=C/Cc2c(O)c3c(c(C)c2OC)COC3=O)cc1)CCC=C(C)C [P3] | 1.052 ± 0.004 µM | 13.419 | 14.117 ± 0.007 µM | – | – | – |
| 545 µM | – | – | O=C1O[C@H]([C@@H](O)CO)C(O)=C1O [Ascorbic acid, reference compound] | – | – | – | – | – | – |
| 35800 ± 403 µM | 2.84 ± 0.033 µM | 0.780 | COc1c(C)c2c(c(O)c1C/C=C(\C)CCC(=O)Oc1ccc(/C=C/C(C)=O)cc1)C(=O)OC2 [P6] | 2.215 ± 0.004 µM | 3.989 | 8.836 ± 0.02 µM | – | – | – |
| – | 1.08 ± 0.036 µM | 10.542 | COc1cc(/C=C/C(C)=O)ccc1OC(=O)CC/C(C)=C/Cc1c(O)c2c(c(C)c1OC)COC2=O [MP5] | 11.406 ± 0.003 µM | 2.691 | 30.698 ± 0.024 µM | 2.325 ± 0.004 µM | 13.203 | 2.149 |
| 8 µM | – | – | Cc1c(C)c2c(c(C)c1O)CCC(C)(C(=O)O)O2 (stereo not drawn) [Trolox, reference compound] | – | – | – | – | – | – |

Source: paper PMC12271471, “Direct synthesis of mycophenolic acid aryl esters with antioxidant and antiproliferative properties” (Scientific Reports, 2025)
